Patent publication US20230416242A1, “DOUBLE DEGRADERS AND USES THEREOF” (Kymera Therapeutics, Inc., priority 2020, published 2023)

target: T1, IRAK4 (Homo sapiens, UniProt Q9NWZ3); assay: IRAK4 MSD degradation in OCI-LY10; assay type: cell-based; settings: OCI-LY10 cells, 24 hrs, Meso Scale Discovery
T1 construct: endogenous in cells; host or cells: OCI-LY10
T1 sequence (Q9NWZ3 1-460): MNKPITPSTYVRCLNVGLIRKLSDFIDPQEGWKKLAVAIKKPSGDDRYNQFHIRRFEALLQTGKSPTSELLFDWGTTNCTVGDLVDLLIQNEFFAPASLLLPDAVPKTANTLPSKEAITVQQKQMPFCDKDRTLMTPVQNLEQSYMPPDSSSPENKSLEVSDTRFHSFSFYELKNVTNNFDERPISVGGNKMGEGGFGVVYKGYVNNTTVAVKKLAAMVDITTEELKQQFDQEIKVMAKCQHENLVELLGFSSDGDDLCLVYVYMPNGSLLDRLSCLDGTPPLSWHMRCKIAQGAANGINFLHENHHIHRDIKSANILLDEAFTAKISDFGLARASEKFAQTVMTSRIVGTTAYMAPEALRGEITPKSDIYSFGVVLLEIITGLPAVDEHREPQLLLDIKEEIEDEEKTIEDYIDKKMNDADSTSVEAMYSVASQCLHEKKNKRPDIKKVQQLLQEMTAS
Protocol: Degradation of IRAK4 in OCI-LY10 was quantitatively measured using Meso Scale Discovery technology. OCI-LY10 cells were seeded in 96-well plates (Coming 3799) with a density of 300,000 cells per well in 100 μL fresh media. Compounds were then added to the assay plates with a final top concentration of 1 to 10 μM in a 1:3 dilution series with total of 8 doses. The assay plates were then incubated for 4 to 24 hours at 37° C. under 5% CO2. The assay plates were then centrifuged for 5 minutes and the cell pellets were treated with 100 μL/well RIPA lysis buffer (Boston BioProducts BP-115D) with proteinase inhibitors. To prepare MSD assay plates (Meso Scale Discovery Catalog number L15XA-3), the plates were coated with […] capture antibody (mouse Anti-IRAK4 antibody [2H9], ab119942) in PBS, at 40 μL/well. The plates were then incubated overnight at 4° C., washed 3 times with 150 μL/well TBST buffer (Cell Signaling Technology, Catalog number 9997S) and blocked with 150 μL/well blocking buffer (Meso Scale Discovery Catalog number R93BA-4). Cell lysates were then added to MSD assay plates and the plates were incubated at room temperature for 1 hour. The plates were then washed 3 times with 150 µL/well TBST buffer and 25 μL/well primary detection antibody (rabbit Anti-IRAK4 antibody [Y279], from Abcam. Catalog number ab32511, 1 μg/mL). The assay plates were then incubated at room temperature for 1 hour, washed 3 times with 150 μL/well TBST buffer and 25 μL/well secondary detection antibody, SULFO-TAG anti-rabbit antibody were added (anti rabbit antibody from Meso Scale Discovery, Catalog number R32AB-1, 1 μg/mL). The assay plates were then incubated at room temperature for 1 hour, washed 3 times with 150 μL/well TBST buffer, and 150 μL/well MSD reading buffer (Meso Scale Discovery catalog number R92TC-2) was added. The plates were then analyzed by a MSD reader (Meso Scale Discovery, Model Quick Plex SQ 120). The data was then analyzed by software Prism 7.0 from GraphPad and the dose-depended IRAK4 degradation were fit using a three-parameter logistic equation to calculate DC50.
The letter codes for IRAK4 DC50 include: A (<1 μM); B (1-10 μM); and C ([…]).

Question: Which DC50 does the source give for `CC(C)(O)c1cc2nn([C@H]3CC[C@H](CN4CCC(CCN(CCCCN5CCC(c6ccc(Nc7nc(N8CCCCC8)cnc7C(N)=O)cc6)CC5)c5cccc6c5C(=O)N(C5CCC(=O)NC5=O)C6=O)CC4)CC3)cc2cc1NC(=O)c1cccc(C(F)(F)F)n1` (stereo partly shown) [Compound I-4] here?
Answer: < 1000 nM

Question: Which DC50 does the source give for `CC(C)(O)c1cc2nc([C@H]3CC[C@H](CN4CCC(CCN(CCCCN5CCC(c6ccc(Nc7nc(N8CCCCC8)cnc7C(N)=O)cc6)CC5)c5cccc6c5C(=O)N(C5CCC(=O)NC5=O)C6=O)CC4)CC3)sc2cc1NC(=O)c1cccc(C(F)(F)F)n1` (stereo partly drawn) [Compound I-5, 3-((4-(1-(4-((2-(2,6-Dioxopiperidin-3-yl)-1,3-dioxoisoindolin-4-yl)(2-(1-(((1R,4R)-4-(5-(2-hydroxypropan-2-yl)-6-(6-(trifluoromethyl)picolinamido)benzo[d]thiazol-2-yl)cyclohexyl)methyl)piperidin-4-yl)ethyl)amino)butyl)piperidin-4-yl)phenyl)amino)-5-(piperidin-1-yl)pyrazine-2-carboxamide] here?
Answer: < 1000 nM

Question: For `NC(=O)c1ncc(N2CCCCC2)nc1Nc1ccc(C2CCN(CCCCN(CCC3CCN(C[C@H]4CC[C@H](n5cc(NC(=O)c6cnn7ccc(N8CCOCC8)nc67)c(C(F)F)n5)CC4)CC3)c3cccc4c3C(=O)N(C3CCC(=O)NC3=O)C4=O)CC2)cc1` (stereo partly shown) [Compound I-6], which DC50 is on record?
Answer: 1000 to 10000 nM

Question: Which DC50 does the source give for `CC(C)(O)c1cc2nc([C@H]3CC[C@H](CN4CC5(CC(C(CNc6cccc7c6C(=O)N(C6CCC(=O)NC6=O)C7=O)CN6CCC(c7ccc(Nc8nc(N9CCCCC9)cnc8C(N)=O)cc7)CC6)C5)C4)CC3)sc2cc1NC(=O)c1cccc(C(F)(F)F)n1` (stereo partly shown) [Compound I-7] here?
Answer: 1000 to 10000 nM

Question: Which DC50 does the source give for `CC(C)(O)c1cc2nn([C@H]3CC[C@H](CN4CC5(CC(C(CNc6cccc7c6C(=O)N(C6CCC(=O)NC6=O)C7=O)CN6CCC(c7ccc(Nc8nc(N9CCCCC9)cnc8C(N)=O)cc7)CC6)C5)C4)CC3)cc2cc1NC(=O)c1cccc(C(F)(F)F)n1` (stereo partly shown) [Compound I-8] here?
Answer: < 1000 nM

Question: How did the DC50 turn out when `NC(=O)c1ncc(N2CCCCC2)nc1Nc1ccc(C2CCN(CC(CNc3cccc4c3C(=O)N(C3CCC(=O)NC3=O)C4=O)C3CC4(C3)CN(C[C@H]3CC[C@H](n5cc(NC(=O)c6cnn7ccc(N8CCOCC8)nc67)c(C(F)F)n5)CC3)C4)CC2)cc1` (stereo partly shown) [Compound I-9] was run?
Answer: < 1000 nM

Question: How did the DC50 turn out when `Cn1c(=O)n(C2CCC(=O)NC2=O)c2cccc(CCCCN(CCNC(=O)[C@H]3CC[C@H](n4cc5cc(NC(=O)c6cccc(C(F)(F)F)n6)c(C(C)(C)O)cc5n4)CC3)CC(=O)N3CC(N4CCC(c5ccc(Nc6nc(N7CCCCC7)cnc6C(N)=O)cc5)CC4)C3)c21` (stereo partly drawn) [Compound I-14, 3-((4-(1-(1-(2-((4-(1-(2,6-Dioxopiperidin-3-yl)-3-methyl-2-oxo-2,3-dihydro-1H-benzo[d]imidazole-4-yl)butyl)(2-((1R,4R)-4-(6-(2-hydroxypropan-2-yl)-5-(6-(trifluoromethyl)picolinamido)-2H-indazol-2-yl)cyclohexanecarboxamido)ethyl)amino)acetyl)azetidin-3-yl)piperidin-4-yl)phenyl)amino)-5-(piperidin-1-yl)pyrazine-2-carboxamide] was run?
Answer: < 1000 nM

Question: With `Cn1c(=O)n(C2CCC(=O)NC2=O)c2cccc(CCCCN(CCNC(=O)[C@H]3CC[C@H](n4cc5cc(NC(=O)c6cccc(C(F)(F)F)n6)c(C(C)(C)O)cc5n4)CC3)CC(=O)N3CCC(c4ccc(Nc5nc(N6CCCCC6)cnc5C(N)=O)cc4)CC3)c21` (stereo partly shown) [Compound I-15] as the compound, how does the DC50 read?
Answer: < 1000 nM

Question: How did the DC50 turn out when `Cc1ncsc1-c1ccc(CNC(=O)[C@@H]2C[C@@H](O)CN2C(=O)[C@@H](NC(=O)COCCOCCN2CCC(c3ccc(Nc4nc(N5CCCCC5)cnc4C(N)=O)cc3)CC2)C(C)(C)C)c(OCCOCCN(C)C[C@H]2CC[C@H](n3cc4cc(NC(=O)c5cccc(C(F)(F)F)n5)c(C(C)(C)O)cc4n3)CC2)c1` [Compound I-17] was run?
Answer: 1000 to 10000 nM

Question: How did the DC50 turn out when `Cc1ncsc1-c1ccc(CNC(=O)[C@@H]2C[C@@H](O)CN2C(=O)[C@@H](NC(=O)COCCOCCN2CCN(C(=O)c3ccc(Nc4nc(-c5cccc(NC(=O)c6ccc(C(C)(C)C)cc6)c5C)cn(C)c4=O)cc3)CC2)C(C)(C)C)c(OCCOCCN(C)C[C@H]2CC[C@H](n3cc4cc(NC(=O)c5cccc(C(F)(F)F)n5)c(C(C)(C)O)cc4n3)CC2)c1` [Compound I-18] was run?
Answer: 1000 to 10000 nM
